Laboratory results taken from ChEMBL document CHEMBL1128386, “Structure-activity relationships of milrinone analogues determined in vitro in a rabbit heart membrane Ca(2+)-ATPase model” (J Med Chem, 1995).

Organism: Oryctolagus cuniculus
Experiment: Activity against [Ca2+]-ATPase assay in rabbit myocardial membrane.
Type: cell membranes
Details: Myocardium

SMILES	Activity
Cc1cnccc1-c1cnc(O)c(N)c1	0.03 µM
Cc1cnccc1-c1cnc(O)c(C#N)c1	0.5 µM
Cc1cnccc1-c1cc(C#N)c(O)nc1C	3.3 µM

Now from value to compound:

Activity	SMILES
1.4 µM	Nc1cc(-c2ccncc2)c[nH]c1=O
6.6 µM	Cc1nc(O)c(Br)cc1-c1ccncc1
10.7 µM	Cc1[nH]c(=O)c(C#N)cc1-c1ccncc1
6 µM	Cc1nc(O)c(N)cc1-c1ccncc1
